Laboratory results taken from patent US10975037B2 (priority 2018, dated 2021).
Where two headings read alike, the source gives them in different places.

Experiments:
[1] = biological target: human RORγt ligand binding domain (RORγt LBD) (Homo sapiens (Human), UniProt P51449); experiment: RORγt ThermoFluor® assay (thermal shift binding)
How it was run: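 Thermal shift with 0.065 mg/mL RORγt LBD and 60 μM 1,8-ANS in 100 mM Hepes pH 7.0, 10 mM NaCl, 2.5 mM GSH, 0.002% Tween-20.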

full-length human RORγt = full-length human RORγt (Homo sapiens (Human), UniProt P51449); experiment: RORγt (full-length human) reporter assay, conditions A or B, HEK293T cells; format: cell-based; conditions: for IC50: RORγt (FL) Reporter Assay A or B, IC50, HEK293T cells; for inhibition at 0.67 µM: 0.67 μM compound concentration (footnote ****); for inhibition at 6 µM: read-out: RORγt (FL) Reporter Assay A or B, % inhibition @ 6 μM, 6 μM compound concentration; for inhibition at 2 µM: 2 μM compound concentration
Chain of full-length human RORγt (P51449 other isoform, or with tags, fused parts or gaps): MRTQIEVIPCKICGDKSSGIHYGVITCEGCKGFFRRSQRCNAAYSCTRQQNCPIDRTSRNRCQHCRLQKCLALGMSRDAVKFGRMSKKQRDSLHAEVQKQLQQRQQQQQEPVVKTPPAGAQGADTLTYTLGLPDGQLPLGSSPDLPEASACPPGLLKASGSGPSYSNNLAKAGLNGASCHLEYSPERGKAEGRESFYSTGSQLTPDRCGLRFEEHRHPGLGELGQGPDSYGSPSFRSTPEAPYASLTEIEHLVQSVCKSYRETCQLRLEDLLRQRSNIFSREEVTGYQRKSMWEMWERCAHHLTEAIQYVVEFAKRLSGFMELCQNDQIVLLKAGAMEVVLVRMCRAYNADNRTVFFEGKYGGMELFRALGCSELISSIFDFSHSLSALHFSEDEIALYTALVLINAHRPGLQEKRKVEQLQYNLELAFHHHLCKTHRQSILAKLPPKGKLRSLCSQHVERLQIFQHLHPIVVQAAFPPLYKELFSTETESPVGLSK
How it was run: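 Dual-luciferase read-out was taken after an overnight (16–20 h) compound exposure. Firefly data were scaled between DMSO-only and saturating reference compound, Renilla-normalized, then plotted against concentration for IC50.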

[2] = read-out: ThermoFluor® Assay, Kd
[3] = HEK-293T, 0.33 μM compound concentration (footnote *****), read-out: RORγt (FL) Reporter Assay A or B, % inhibition
[4] = HEK-293T, read-out: RORγt (FL) Reporter Assay A or B, % inhibition
[5] = HEK-293T, 0.22 μM compound concentration (footnote *******), read-out: RORγt (FL) Reporter Assay A or B, % inhibition
[6] = HEK-293T, 3 μM compound concentration (footnote *), read-out: RORγt (FL) Reporter Assay A or B, % inhibition

Chain of human RORγt ligand binding domain (RORγt LBD) (P51449 other isoform, or with tags, fused parts or gaps): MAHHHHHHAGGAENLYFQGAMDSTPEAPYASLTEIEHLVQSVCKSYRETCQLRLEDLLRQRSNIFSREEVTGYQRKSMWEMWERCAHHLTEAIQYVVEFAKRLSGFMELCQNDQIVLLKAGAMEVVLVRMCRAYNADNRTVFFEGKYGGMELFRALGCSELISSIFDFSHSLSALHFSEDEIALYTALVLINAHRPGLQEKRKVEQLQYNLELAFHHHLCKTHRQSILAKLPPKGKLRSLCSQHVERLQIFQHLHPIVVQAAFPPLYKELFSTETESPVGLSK

Compound | Kd [1, 2] [nM] | IC50 (full-length human RORγt) [nM] | Kd ([1]; ThermoFluor® Assay, Kd) [nM] | further results
CCn1nc(C(=O)NC[C@H]2CC[C@H](S(C)(=O)=O)CC2)c(Cl)c1-c1ccc(CC(C)(C)CC(F)(F)F)cc1OC(F)F [Example 89, 4-Chloro-5-(2-(difluoromethoxy)-4-(4,4,4-trifluoro-2,2-dimethylbutyl)phenyl)-1-ethyl-N-(((1r,4r)-4-(methylsulfonyl)cyclohexyl)methyl)-1H-pyrazole-3-carboxamide] | 0.24 | 5.4 |  | inhibition at […] (full-length human RORγt; [3]): 98%
CCn1nc(C(=O)NC[C@H]2CC[C@H](S(C)(=O)=O)CC2)c(Cl)c1-c1ccc(CC(C(F)(F)F)C(F)(F)F)cc1OC(F)F [Example 86, 4-Chloro-5-(2-(difluoromethoxy)-4-(3,3,3-trifluoro-2-(trifluoromethyl)propyl)phenyl)-1-ethyl-N-(((1r,4r)-4-(methylsulfonyl)cyclohexyl)methyl)-1H-pyrazole-3-carboxamide] | 0.17 | 5.6 |  | inhibition at 0.67 µM (full-length human RORγt; [4]): 103%
CCn1nc(C(=O)NC[C@]2(O)CC[C@@H](S(C)(=O)=O)CC2)c(C#N)c1-c1ccc(CCC(F)(F)F)cc1OC [Example 124, 4-Cyano-1-ethyl-N-(((1s,4s)-1-hydroxy-4-(methylsulfonyl)cyclohexyl)methyl)-5-(2-methoxy-4-(3,3,3-trifluoropropyl)phenyl)-1H-pyrazole-3-carboxamide] | 170 | 770 |  | inhibition at 6 µM (full-length human RORγt; HEK-293T): 83%
CCn1nc(C(=O)NC[C@]2(O)CC[C@@H](S(C)(=O)=O)CC2)c(Cl)c1-c1ccc(C(=O)C(C)(C)C(F)(F)F)cc1OC(F)F [Example 105, 4-Chloro-5-(2-(difluoromethoxy)-4-(3,3,3-trifluoro-2,2-dimethylpropanoyl)phenyl)-1-ethyl-N-(((1s,4s)-1-hydroxy-4-(methylsulfonyl)cyclohexyl)methyl)-1H-pyrazole-3-carboxamide] | 3.3 | 13 |  | inhibition at 3 µM (full-length human RORγt; [4]): 28%
CCn1nc(C(=O)NC[C@]2(O)CC[C@@H](S(N)(=O)=O)CC2)c(C)c1-c1ccc(C[C@H](C)C(F)(F)F)cc1OC(F)F (single isomer, unassigned) [Example 61, 5-(2-(difluoromethoxy)-4-((S*)-3,3,3-trifluoro-2-methylpropyl)phenyl)-1-ethyl-N-(((1s,4R)-1-hydroxy-4-sulfamoylcyclohexyl)methyl)-4-methyl-1H-pyrazole-3-carboxamide] |  | 68 | 6.5 | inhibition at 1 µM (full-length human RORγt; HEK-293T, 1 μM compound concentration (footnote ***), read-out: RORγt (FL) Reporter Assay A or B, % inhibition): 130%
CCn1nc(C(=O)NC[C@]2(C#N)CC[C@@H](S(C)(=O)=O)CC2)c(Cl)c1-c1ccc(CC(C)(C)C(F)(F)F)cc1 [Example 169, 4-Chloro-N-(((1s*,4s*)-1-cyano-4-(methylsulfonyl)cyclohexyl)methyl)-1-ethyl-5-(4-(3,3,3-trifluoro-2,2-dimethylpropyl)phenyl)-1H-pyrazole-3-carboxamide] | 3.4 | 41 |  | inhibition at […] (full-length human RORγt; [5]): 85%
CCn1nc(C(=O)NC[C@H]2CC[C@H](S(C)(=O)=O)CO2)c(Cl)c1-c1ccc(CC(C)(C)C(F)(F)F)cc1OC(F)F (single isomer, unassigned) [Example 15, 4-Chloro-5-(2-(difluoromethoxy)-4-(3,3,3-trifluoro-2,2-dimethylpropyl)phenyl)-1-ethyl-N-(((2R*,5S)-5-(methylsulfonyl)tetrahydro-2H-pyran-2-yl)methyl)-1H-pyrazole-3-carboxamide] |  | 5.4 | 0.13 | inhibition at 0.67 µM (full-length human RORγt; [4]): 113%
CCn1nc(C(=O)NC[C@]2(O)CC[C@@H](S(C)(=O)=O)CC2)c(Cl)c1-c1ccc(CCCC(F)(F)F)cc1OC(F)F [Example 77, 4-Chloro-5-(2-(difluoromethoxy)-4-(4,4,4-trifluorobutyl)phenyl)-1-ethyl-N-(((1s,4s)-1-hydroxy-4-(methylsulfonyl)cyclohexyl)methyl)-1H-pyrazole-3-carboxamide] | 1.2 | 5.6 |  | inhibition at 2 µM (full-length human RORγt; [4]): 96%
CCn1nc(C(=O)NC[C@]2(C(=O)O)CC[C@H](S(C)(=O)=O)CC2)c(Cl)c1-c1ccc(N[C@H](C)C(F)(F)F)cc1OC (relative stereo) [Example 96, (1r*,4R*)-1-((4-Chloro-1-ethyl-5-(2-methoxy-4-(((R)-1,1,1-trifluoropropan-2-yl)amino)phenyl)-1H-pyrazole-3-carboxamido)methyl)-4-(methylsulfonyl)cyclohexane-1-carboxylic Acid] |  | > 6000 | 25000 | inhibition at 6 µM (full-length human RORγt; HEK-293T): -10%
CCn1nc(C(=O)NC[C@@H]2CC[C@H](S(C)(=O)=O)CN2)c(Cl)c1-c1ccc(CC(C)(C)C(F)(F)F)cc1OC(F)F (stereo in doubt) [Example 12, 4-Chloro-5-(2-(difluoromethoxy)-4-(3,3,3-trifluoro-2,2-dimethylpropyl)phenyl)-1-ethyl-N-(((2S*,5S*)-5-(methylsulfonyl)piperidin-2-yl)methyl)-1H-pyrazole-3-carboxamide] |  | 91 | 74 | inhibition at 3 µM (full-length human RORγt; [6]): 92%
CCn1nc(C(=O)NC[C@]2(O)CC[C@@H](S(C)(=O)=O)CC2)c(Cl)c1-c1ccc(C2(O)CCC(C(F)(F)F)CC2)cc1OC(F)F (single isomer, unassigned) [Example 113, 4-Chloro-5-(2-(difluoromethoxy)-4-((1r*,4r*)-1-hydroxy-4-(trifluoromethyl)cyclohexyl)phenyl)-1-ethyl-N-(((1s,4s)-1-hydroxy-4-(methylsulfonyl)cyclohexyl)methyl)-1H-pyrazole-3-carboxamide] |  | 61 | 120 | inhibition at 3 µM (full-length human RORγt; [6]): 88%
Cn1nc(C(=O)NC[C@@]2(O)CC[C@H](S(C)(=O)=O)C[C@@H]2O)c(Cl)c1-c1ccc(CCCC(F)(F)F)cc1OC(F)F (stereo in doubt) [Example 159, 4-Chloro-5-(2-(difluoromethoxy)-4-(4,4,4-trifluorobutyl)phenyl)-N-(((1S*,2S*,4S*)-1,2-dihydroxy-4-(methylsulfonyl)cyclohexyl)methyl)-1-methyl-1H-pyrazole-3-carboxamide] |  | 39 | 41 | inhibition at 3 µM (full-length human RORγt; [6]): 73%
CCn1nc(C(=O)NC[C@]2(O)CC[C@@H](S(C)(=O)=O)CC2)c(Cl)c1-c1c(F)cc(C[C@@H](C)C(F)(F)F)cc1F (single isomer, unassigned) [Example 199, 4-Chloro-5-(2,6-difluoro-4-((R*)-3,3,3-trifluoro-2-methylpropyl)phenyl)-1-ethyl-N-(((1s,4S)-1-hydroxy-4-(methylsulfonyl)cyclohexyl)methyl)-1H-pyrazole-3-carboxamide] |  | 58 | 14 | inhibition at 2 µM (full-length human RORγt; [4]): 75%
CCn1nc(C(=O)NC[C@]2(CO)CC[C@@H](S(C)(=O)=O)CC2)c(Cl)c1-c1ccc(N[C@H](C)C(F)(F)F)cc1OC (relative stereo) [Example 93, 4-Chloro-1-ethyl-N-(((1s*,4S*)-1-(hydroxymethyl)-4-(methylsulfonyl)cyclohexyl)methyl)-5-(2-methoxy-4-(((R)-1,1,1-trifluoropropan-2-yl)amino)phenyl)-1H-pyrazole-3-carboxamide] |  | 30 | 11 | inhibition at 2 µM (full-length human RORγt; [4]): 96%
CCS(=O)(=O)[C@H]1CC[C@H](CNC(=O)c2nn(C)c(-c3ccc(CC(C)(C)C(F)(F)F)cc3OC(F)F)c2Cl)CC1 [Example 156, 4-Chloro-5-(2-(difluoromethoxy)-4-(3,3,3-trifluoro-2,2-dimethylpropyl)phenyl)-N-(((1r,4r)-4-(ethylsulfonyl)cyclohexyl)methyl)-1-methyl-1H-pyrazole-3-carboxamide] | 1.5 | 20 |  | inhibition at […] (full-length human RORγt; [3]): 89%
CCn1nc(C(=O)NC[C@H]2CC[C@H](S(C)(=O)=O)CC2)c(C)c1-c1ccc(CCC(F)(F)F)cc1OC [Example 226, 1-Ethyl-5-(2-methoxy-4-(3,3,3-trifluoropropyl)phenyl)-4-methyl-N-(((1r,4r)-4-(methylsulfonyl)cyclohexyl)methyl)-1H-pyrazole-3-carboxamide] | 12 | 38 |  | inhibition at 0.67 µM (full-length human RORγt; [4]): 71%
CCn1nc(C(=O)NC[C@@H]2CC[C@@H](S(C)(=O)=O)CO2)c(Cl)c1-c1ccc(CC(C)(C)C(F)(F)F)cc1OC(F)F (racemic) [Example 14, 4-Chloro-5-(2-(difluoromethoxy)-4-(3,3,3-trifluoro-2,2-dimethylpropyl)phenyl)-1-ethyl-N-(((2RS,5SR)-5-(methylsulfonyl)tetrahydro-2H-pyran-2-yl)methyl)-1H-pyrazole-3-carboxamide] |  | 1.6 | 0.14 | inhibition at […] (full-length human RORγt; [5]): 99%
CCn1nc(C(=O)NC[C@]2(O)CC[C@@H](S(C)(=O)=O)CC2)c(Cl)c1-c1ccc(N[C@H](C)C(F)(F)F)cc1OC [Example 24, 4-Chloro-1-ethyl-N-(((1s,4S)-1-hydroxy-4-(methylsulfonyl)cyclohexyl)methyl)-5-(2-methoxy-4-(((R)-1,1,1-trifluoropropan-2-yl)amino)phenyl)-1H-pyrazole-3-carboxamide] | 21 | 52 |  | inhibition at 2 µM (full-length human RORγt; [4]): 104%
